In patent publication US8513281B1 (priority 1999, dated 2013):
Like-named read-outs stand apart in the source and are kept apart here.

Key:
[1] = system: rats with spinal cord injury; test: BBB locomotor test after moderate to severe spinal cord injury; assay type: in vivo, rat; settings: intrathecal via ESOX pump, 60 μl per day
Description: In this study, twenty-four rats deeply anesthetized rats received a moderate to severe spinal cord injury using a 2-French Fogarty embolectomy catheter. Shortly after injury, a 1-French silicon tubing was threaded into the intrathecal space from the atlanto-occipital membrane. The intrathecal catheter was connected an ESOX that was implanted subcutaneously. The ESOX pump flowed at a rate of 60 μl per day. Animals were randomly assigned to receive saline or salicylate. Animals were tested each week using the BBB locomotor test. All of the behavioral testing was done by a person who was unaware of the type of drug delivered or the expected effects of the drug. […] The average score for the saline treated rats was 0 while the average score for salicylate treated rats was 5.45.

[2] = system: rats with chronic spinal cord injury exhibiting allodynia; test: Intrathecal salicylate for pain: allodynia on light touch in rats with chronic spinal cord injury; assay type: in vivo, rat; settings: intrathecal via ESOX pump, 60 μl per day; two rats; saline replaced by salicylate
Description: A 1-French silicon tubing was threaded into the intrathecal space from the atlanto-occipital membrane. The intrathecal catheter was connected an ESOX that was implanted subcutaneously. The ESOX pump flowed at a rate of 60 μl per day. Initially, saline was placed in the pumps. At testing on days 2, 12, 14 after pump placement, signs of allodynia were consistently observed when the animals were lightly touched at particular parts of their body (left flank for rat 1 and right shoulder for rat 2). Animals vocalized consistently when these areas were lightly touched. All of the behavioral testing was done by a person who was unaware of the type of drug delivered or the expected effects of the drug. The saline was removed from the pumps and the pumps were refilled with salicylate. […] When the salicylate was removed and replaced with saline, consistent allodynia was observed.

[3] = system: Male Sprague-Dawley rats; settings: rat, in vivo
[4] = system: Male Sprague-Dawley rats; settings: rat, in vivo; remark: listed apart in the source
[5] = system: Male Sprague-Dawley rats; settings: rat, in vivo; remark: listed apart in the source

Row | Molecule | functional deficits versus saline [1] | average BBB locomotor score ([1]; started shortly after injury) | allodynia (vocalization when lightly touched) [2] | colorectal distension visceromotor response threshold [3] | duration of effects [3] | onset of response to the bolus [3] | effect on flinches/licks of the hindpaw (formalin test) [4] | duration of effects [5] | onset of response to the bolus [5] | tail flick latency response [5]
1 | O=C(O)c1ccccc1O [salicylate] | on average less functional deficits | 5.45 | no evidence of allodynia was observed | – | – | – | – | – | – | –
2 | choline-magnesium trisalicylate [Choline-Mg-Salicylate] | – | – | – | dose-dependent | not long-lasting | rapid in onset | produced an effect | not long-lasting | rapid in onset | dose-dependent
